Source: US20120220580A1, “PREPARATION OF CAROTENOID DERIVATIVES AND THEIR APPLICATIONS” (BEIJING GINGKO GROUP BIOLOGICAL TECHNOLOGY CO., LTD., priority 2009, published 2012)

Key:
nutritional obesity rats [1] = assay: Body weight of nutritional obesity rats on high-fat feed, intragastric drug for 30 d (Example 17); type: in vivo, rat; settings: Table 1, high-fat feed, x ± s; for Body weight(g) (After-experiment): after 30 d intragastric administration; for Body weight(g) increased: increase over 30 d of administration; as to all read-outs here: test concentration or dose not given here
Method: (§1) Fucoxanthin group and test animal groups were administrated with same doses of the drugs. The basal feed control group continued to be fed with basal feed, other groups with high-fat feed. The basal feed- and model control groups were intragastric administrated with distilled water, the other, drug-administrated groups with respective doses of drug, the administration were carried out uninterruptedly for 30 d. Each group of the animals were bred in different hutches, the room temperature was controlled within (22±2)° C., using natural illumination, the animals took food and drank freely. The body weights of the animals were measured one time each week, feed-intakes of the rats were also observed and recorded. After 30 days the rats were weighed. Statistical analysis: Variance analysis of the data collected in this experiment was implemented by SAS software package, Dunnett's t-test was used for inter-group comparative analysis, p<0.05 was used as the criterion of statistical significance.

nutritional obesity rats [2] = assay: Weight of fat pads around testicles of nutritional obesity rats (Example 18); type: in vivo, rat; settings: after 30 d administration, x ± s; for Body weight(g) (After-experiment): Table 2
Method: as §1, with “significance. Experimental procedures were the same as in Example 17. […] Statistical analysis was the same as in Example 16.” for “significance.”

[3] = system: nutritional obesity model rats; assay: Weight of fat pads around kidneys of nutritional obesity model rats (Example 19); type: in vivo, rat; settings: after 30 d administration, x ± s; for Body weight(g) (After-experiment): Table 3
Method: as §1, with “significance. Experimental procedures were the same as in Example 17. […] Statistical analysis was the same as in Example 16.” for “significance.”

nutritional obesity rats [4] = assay: Weight of abdomen fat of nutritional obesity rats (Example 20); type: in vivo, rat; settings: after 30 d administration, x ± s; for Body weight(g) (After-experiment): Table 4
Method: as §1, with “significance. Experimental procedures were the same as in Example 17. […] Statistical analysis was the same as in Example 16.” for “significance.”

lab mice = settings: fucoxanthin as an additive in condensed food, experimental animals; cited from earlier work; also: test concentration or dose not given here
[5] = compared with fucoxanthin; cited from earlier work

Structure (SMILES)	Body weight(g) (After-experiment) (nutritional obesity rats [1])	Body weight(g) increased (nutritional obesity rats [1])	Body weight(g) (After-experiment) (nutritional obesity rats [2])	Weight fat pads around testicles(g) (nutritional obesity rats [2])	Weight fat pads around testicles/bw × 100 (nutritional obesity rats [2])	Body weight(g) (After-experiment) [3]	Weight fat pads around kidneys(g) [3]	Weight fat pads around kidneys/bw × 100 [3]	Body weight(g) (After-experiment) (nutritional obesity rats [4])	Weight abdomen fat/bw × 100 (nutritional obesity rats [4])	Weight. abdomenfat (g) (nutritional obesity rats [4])	addiction or other side effects (lab mice)	weight-reducing activity [5]
CC(=O)OC1CC(C)(C)C(=C=C/C(C)=C/C=C/C(C)=C/C=C/C=C(C)/C=C/C=C(\C)C(=O)CC23OC2(C)CC(O)CC3(C)C)[C@](C)(O)C1 (stereo partly drawn) [fucoxanthin, 3′-(Acetyloxy)-6′,7′-didehydro-5,6-epoxy-5,5′,6,6′,7,8-hexahydro-3,5′-dihydroxy-8-oxo-β,β-carotene, reference compound]	531.00 ± 20.32Δ g	43.68 ± 19.13Δ g	531.00 ± 20.32 g	7.32 ± 0.83Δ g	1.38 ± 0.11Δ	531.00 ± 20.32 g	7.42 ± 0.60Δ g	1.42 ± 0.12Δ	531.00 ± 20.32 g	1.81 ± 0.13Δ	9.61 ± 0.12ΔΔ g	would not induce the addiction of the experimental animals, or had any other side effects	–
C\C(C=C=C1C(C)(C)CC(O)C[C@@]1(C)O)=C/C=C/C(C)=C/C=C/C=C(C)/C=C/C=C(\C)C(=O)CC12OC1(C)CC(O)CC2(C)C (stereo partly drawn) [fucoxanthol, reference compound]	527.00 ± 18.89ΔΔ g	39.39 ± 18.11ΔΔ g	527.00 ± 18.89 g	7.00 ± 0.67ΔΔ g	1.25 ± 0.13ΔΔ	527.00 ± 18.89 g	7.0 ± 0.58ΔΔ g	1.20 ± 0.10ΔΔ	527.00 ± 18.89 g	1.60 ± 0.11ΔΔ	7.91 ± 0.11ΔΔ g	–	much stronger than fucoxanthin
